Laboratory results reported in PMC12055592, “Post-symptomatic NLRP3 inhibition rescues cognitive impairment and mitigates amyloid and tau driven neurodegeneration” (Npj Dementia, 2025).

Experiments:
[1] = test system: NLRP3 inflammasome, IL-1β release in human PBMCs; assay: PBMC in vitro assay (LPS priming, nigericin, secreted IL-1β); assay type: cell-based
Procedure: Cryopreserved human PBMCs (iXCells Biotechnologies, San Diego, CA) were rapidly thawed and incubated overnight at 37 °C with 5% CO2 in Complete Media: RPMI 1640 medium (ATCC modification, Thermo Fisher Scientific) supplemented with 10% Fetal bovine serum (FBS, Thermo Fisher Scientific) and 1% Penicillin-Streptomycin (Thermo Fisher Scientific). The next day, cells were centrifuged (300 × g, 5 min), resuspended in Assay Media (Complete Media without FBS) and plated at 33,333 cells/well in a 96-well cell culture plate. PBMCs were then primed with 100 ng/ml LPS (E. coli O26:B6) for 4 h. Following LPS priming, PBMCs were incubated with VEN-02XX pre-diluted in assay media with 0.8% DMSO, for 30 min (top concentration 100 µM; 4-fold titration). Following drug incubation, PBMCs were stimulated with 10 µM Nigericin (Millipore-Sigma, Burlington, MA) for an additional 60 min, after which conditioned media was collected for analysis of secreted IL-1β in an electrochemiluminescence immunoassay (Mesoscale Discovery).

[2] = test system: NLRP3 inflammasome, IL-1β in iPSC-derived microglia; assay: iPSC-derived microglia in vitro assay, secreted IL-1β; assay type: cell-based; conditions: for IC50: Microglia, geometric mean, n = 5
Procedure: iPSC-derived microglia (BX-0900, BrainXell, Madison, WI) were thawed and recovered as per the supplier’s instructions. Briefly, viable cells were counted post-thaw using Trypan Blue, 0.4% (Thermo Fisher Scientific) and 25,000 cells were seeded on poly-d-lysine coated 96-well plates in DMEM-F/12 medium (Thermo Fisher Scientific) supplemented with 1X B-27 supplement (Thermo Fisher Scientific), 1X N-2 supplement (Thermo Fisher Scientific), 1X Non-essential amino acids (Thermo Fisher Scientific), 1X Chemically defined lipid mix (Thermo Fisher Scientific), 1 mM GlutaMax (Thermo Fisher Scientific), 0.2 mM Ascorbic Acid (Millipore), 100 ng/mL IL-34 (PeproTech, Cranbury, NJ), 2 ng/mL TGF-β1 (PeproTech) and 20 ng/mL M-CSF (PeproTech). Fresh media was added 3 days after seeding, half of which was replenished with fresh media 6 days following seeding. The assay was performed 7 days after cells were seeded in 96-well plates. Two assay protocol variations were performed: cells were either pre-treated with VEN-02XX to block NLRP3 inflammasome formation and then primed with LPS (Fig. 1, D. Compound added before LPS priming) or were primed with LPS and then treated with VEN-02XX (Fig. 1, D. Compound added after LPS priming). For compound treatment, cells were treated with VEN-02XX for 1 h (top concentration 100 µM; 3-fold titration) to block NLRP3 inflammasome formation. For LPS priming, cells were primed with 100 ng/mL LPS (E.coli O26:B6, Millipore) for 4 h. At the end of either protocol, cells were stimulated with 10 uM Nigericin (Millipore) for 1 h, after which conditioned media was collected for analysis of secreted IL-1β, IL-18 and TNFα in an electrochemiluminescence immunoassay (Mesoscale Discovery).

[3] = test system: NLRP3 inflammasome, IL-1β release in mouse whole blood; assay: Mouse whole-blood in vitro assay (LPS, ATP, secreted IL-1β); assay type: cell-based
Procedure: Blood was collected from CD1 female mice in lithium-Heparin tubes (Sarstedt, Numbrecht, Germany). Freshly collected blood was distributed in each well of a 96-well round-bottom cell culture plate (Corning Life Sciences, Tewksbury, MA). Blood was primed with 1 µg/ml Lipopolysaccharide (LPS) (E. coli O26:B6, Millipore, Burlington, MA) for 4.5 h, incubated at 37 °C with 5% CO2. Following LPS priming, blood was incubated with VEN-02XX pre-diluted in HBSS (Thermo Fisher Scientific, Waltham, MA) with 2% DMSO, for 30 min (top concentration 25 µM; 3-fold titration). Following drug incubation, blood was stimulated with 5 mM ATP (Millipore) for an additional 30 min at 37 °C with 5% CO2 under continuous shaking (450 RPM), after which conditioned media was collected for analysis of secreted IL-1β in an electrochemiluminescence immunoassay (Mesoscale Discovery).

[4] = test system: NLRC4; assay: NLRC4 in vitro selectivity assay (THP1-Null2 cells, Needle-Tox, IL-1β); assay type: cell-based; conditions: n = 2; top concentration 50 µM
[5] = test system: 5XFAD/Rubicon KO mice; assay: Immunoblotting of NeuN and MAP2 in cortical and hippocampal lysates of 5XFAD/Rubicon KO mice; assay type: in vivo, mouse; conditions: 20 mg/kg vs vehicle, not statistically significant
Procedure: 5XFAD/Rubicon KO mice received vehicle (0.5% w/v methylcellulose/0.1% w/v Tween® 80 in water) or VEN-02XX (0.01, 1, or 20 mg/kg) every day by oral gastric gavage for 9 weeks.
Ten ug of protein was separated by gel electrophoresis (one gel loaded with cortex samples and one gel loaded with hippocampus samples), on a 4–15% gradient Tris-glycine gel and transferred to PVDF membranes using the TransBlot Turbo semi-dry transfer system (Bio-Rad Laboratories, Hercules, CA). The membranes were blocked in Tris-buffered saline, 0.1% Tween 20 (1X TBST) with 5% milk for 1 h at room temperature followed by overnight incubation at 4 °C with primary antibodies (1:1000 rabbit anti-NeuN [EMD Millipore, Burlington, MA] and 1:10,000 rabbit anti-Vinculin [Cell Signaling, Boston, MA]) diluted in TBST with 1% milk. For the complete list of antibodies please reference Supplementary Table 2. The next day, membranes were washed three times with 1XTBST for 10 min before incubation with HRP-conjugated secondary antibody (1:500 goat anti-rabbit [Cedarlane Labs, Burlington, ON]) for 90 min at room temperature. Membranes were then washed three times with 1XTBST for 10 min and developed with Pierce ECL western blotting substrate (Thermo Fisher Scientific) and visualized on a ChemiDoc imaging system (Bio-Rad Laboratories). […]

## CC(C)(O)CNc1nnc(-c2ccc(Cl)cc2C(F)(F)F)c2ccncc12 [VEN-02XX]
[1]; Homo sapiens, PBMC, geometric mean, n = 3, read-out: IL-1β inhibition (PBMCs) IC50
  IC50: 350 nM
[1]; in words
  potency of NLRP3 inhibition in PBMC: sub-micromolar potency
[2]; compound added after LPS priming
  IC50: 250 nM
[2]; compound added before LPS priming
  IC50: 300 nM
[2]; in words
  potency of NLRP3 inhibition in iPSC-derived microglia: sub-micromolar potency
[3]; Mus musculus, IL-1β, geometric mean, n = 3
  IC50: 440 nM
[3]; in words
  potency of NLRP3 inhibition in whole blood: sub-micromolar potency
[4]
  block of IL-1β release downstream of NLRC4: inability to block IL-1β release
[5]
  MAP2 expression (immunoblot, normalized to vinculin): improved MAP2 levels
  NeuN protein expression (immunoblot, normalized to vinculin): consistent improvements in overall NeuN protein expression
